Five compounds from publication PMC11239830, “Synthetic macrolides overcoming MLSBK-resistant pathogens” (Cell Discovery, 2024) can be followed below.

In brackets after ≈: the same amount, converted by molar mass. Read-outs that look alike come from different tables or passages of the source.

One test has as its system S. pneumoniae. Nature of the test: MIC, broth microdilution. Format: cell-based, Streptococcus pneumoniae. Summed up: (§1)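 Incubation ran for 16–20 h at 37 °C after setup per Clinical and Laboratory Standards Institute microdilution procedure. Growth was then observed to assign the MIC. Assays were replicated at least three times.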
The next test deals with S. pyogenes. Put plainly: MIC, broth microdilution. Format: cell-based, Streptococcus pyogenes. Summed up:
as §1
A general note: Dilution methods test growth across graded concentrations, often in twofold steps.

In a further test the test system is H. influenzae. Nature of the test: MIC, broth microdilution. Format: cell-based, Haemophilus influenzae. An outline of the steps: as §1
Test [1] concerns S. aureus. Nature of the test: MICs and MBCs against selected S. aureus isolates. Format: cell-based, Staphylococcus aureus.
For another test, the system named is M. catarrhalis. Nature of the test: MIC, broth microdilution. Format: cell-based, Moraxella catarrhalis. The conditions noted are these: M. catarrhalis 13L332, Ery-S. The protocol: MICs were determined by the microdilution method according to the Clinical and Laboratory Standards Institute guidelines. Briefly, the stock solution of compounds and the reference antibiotics were diluted 2-fold in sterile 96-well plates with cation-adjusted Mueller-Hinton broth, and mixed with CAMHB-containing bacteria to give a final inoculum of 5 × 10^5 CFU/mL for broth microdilution experiments. […] Finally, the 96-well plates were incubated at 37 °C for 16–20 h to observe and record the results. The lowest concentration at which no bacterial growth could be observed visually was identified as the MICs of the compounds. The assay for MICs was replicated at least three times.

Test [2] has as its system S. aureus. Put plainly: MIC, broth microdilution. Format: cell-based, Staphylococcus aureus. An outline of the steps: as §1
The mark [3] stands for this setting: Streptococcus pneumoniae, ATCC49619, S. pneumoniae ATCC49619, Ery-S, read-out: MIC.
The mark [4] stands for this setting: Streptococcus pneumoniae, S. pneumoniae 07P390, c-ermB, read-out: MIC.
Where [5] appears, read: Haemophilus influenzae, ATCC49247, H. influenzae ATCC49247, Azi-S, read-out: MIC.
Setting [6] is: Staphylococcus aureus, MRSA, strain 1, MRSA, i-ermA.
Where [7] appears, read: Staphylococcus aureus, MRSA, strain 4, MRSA, i-ermA.
[8] abbreviates: Staphylococcus aureus, MRSA, strain 5, MRSA, i-ermC.
Where [9] appears, read: Staphylococcus aureus, MRSA, strain 6, MRSA, c-ermB.
Where [10] appears, read: Staphylococcus aureus, MRSA, strain 7, MRSA, c-ermB.
Setting [11] is: Staphylococcus aureus, MRSA, strain 10, MRSA, c-ermB.
Where [12] appears, read: Staphylococcus aureus, MRSA, strain 11, MRSA, c-ermB.

Broadly, the MBC is the smallest concentration meeting the test's criterion for killing. For the compound `CC[C@H]1OC(=O)[C@@](C)(F)C(=O)[C@H](C)[C@@H](O[C@@H]2O[C@H](C)C[C@H](N(C)C)[C@H]2O)[C@](C)(OC)C[C@@H](C)C(=O)[C@H](C)[C@H]2N(CCCCn3cc(-c4cccc(N)c4)nn3)C(=O)O[C@]12C` [solithromycin], the MIC amounted to 0.016 µg/mL (≈ 0.0189 µM) in the test with S. pneumoniae (setting [3]); 0.03 µg/mL (≈ 0.0355 µM) in the test with S. pneumoniae (setting [4]); 0.5 µg/mL (≈ 0.592 µM) with S. pneumoniae (Streptococcus pneumoniae, S. pneumoniae PU09, mef, read-out: MIC); 0.016 µg/mL (≈ 0.0189 µM) with S. pyogenes (Streptococcus pyogenes, S. pyogenes 01-968, i-ermTR (Table S5), read-out: MIC); 0.03 µg/mL (≈ 0.0355 µM) in the test on S. pyogenes (Streptococcus pyogenes, S. pyogenes 12-206, c-ermB (Table S5), read-out: MIC); 2 µg/mL (≈ 2.37 µM) in the test with H. influenzae (setting [5]). Also, the MIC stood at 0.06 µg/mL (≈ 0.071 µM) with S. aureus [1] (Staphylococcus aureus, ATCC29213, S. aureus ATCC29213 (Table S10), read-out: MIC); 0.06 µg/mL (≈ 0.071 µM) with S. aureus [1] (setting [6]); 0.06 µg/mL (≈ 0.071 µM) against S. aureus [1] (setting [7]); 0.06 µg/mL (≈ 0.071 µM) with S. aureus [1] (setting [8]); 0.25 µg/mL (≈ 0.296 µM) against S. aureus [1] (setting [9]); 0.5 µg/mL (≈ 0.592 µM) in the test with S. aureus [1] (setting [10]). Also, the MIC worked out at 0.25 µg/mL (≈ 0.296 µM) in the test with S. aureus [1] (setting [11]); 0.25 µg/mL (≈ 0.296 µM) against S. aureus [1] (setting [12]); 0.06 µg/mL (≈ 0.071 µM) in the test on S. aureus [1] (Staphylococcus aureus, MSSA, strain 2, MSSA, i-ermC, read-out: MIC); 0.06 µg/mL (≈ 0.071 µM) in the test with S. aureus [1] (Staphylococcus aureus, MSSA, strain 3, MSSA, i-ermC, read-out: MIC); 16 µg/mL (≈ 18.9 µM) in the test on S. aureus [1] (Staphylococcus aureus, MSSA, strain 8, MSSA, c-ermB, read-out: MIC); 32 µg/mL (≈ 37.9 µM) with S. aureus [1] (Staphylococcus aureus, MSSA, strain 9, MSSA, c-ermB, read-out: MIC). Besides, the MBC/MIC in the test with S. aureus [1] (S. aureus ATCC29213) is on record as above 8; in the test on S. aureus [1] (strain 1, MRSA, i-ermA), above 8; with S. aureus [1] (strain 2, MSSA, i-ermC) it was above 8; against S. aureus [1] (strain 3, MSSA, i-ermC), above 8; in the test with S. aureus [1] (strain 4, MRSA, i-ermA), above 8; against S. aureus [1] (strain 5, MRSA, i-ermC), 8. The MBC/MIC with S. aureus [1] (strain 6, MRSA, c-ermB) is recorded as above 8; against S. aureus [1] (strain 7, MRSA, c-ermB), above 8; against S. aureus [1] (strain 8, MSSA, c-ermB), 8; against S. aureus [1] (strain 9, MSSA, c-ermB) it was above 8; in the test on S. aureus [1] (strain 10, MRSA, c-ermB), above 8; against S. aureus [1] (strain 11, MRSA, c-ermB), above 8. Also, the MBC against S. aureus [1] (setting [6]) was above 0.5 µg/mL; in the test on S. aureus [1] (setting [7]), above 0.5 µg/mL; in the test on S. aureus [1] (setting [8]) it was 0.5 µg/mL (≈ 0.592 µM); with S. aureus [1] (setting [9]) it was above 2 µg/mL; in the test with S. aureus [1] (setting [10]), above 4 µg/mL; in the test with S. aureus [1] (setting [11]), above 2 µg/mL. The MBC in the test with S. aureus [1] (setting [12]) was above 2 µg/mL; against S. aureus [1] (Staphylococcus aureus, MSSA, strain 8, MSSA, c-ermB), 128 µg/mL (≈ 151 µM); with S. aureus [1] (Staphylococcus aureus, MSSA, strain 9, MSSA, c-ermB), above 256 µg/mL; in the test on S. aureus [1] (Staphylococcus aureus, S. aureus ATCC29213, read-out: MBC), above 0.5 µg/mL; in the test with S. aureus [1] (Staphylococcus aureus, strain 3, MSSA, i-ermC, read-out: MBC), above 0.5 µg/mL; against S. aureus [1] (strain 2, MSSA, i-ermC), above 0.5 µg/mL. Also, the “bactericidal or bacteriostatic by MBC/MIC” value in the test on S. aureus [1] (selected S. aureus isolates) was “bacteriostatic against all selected isolates”.
Regarding `CC[C@H]1OC(=O)[C@H](C)[C@@H](OC(=O)NCCCCOCCC#Cc2ccc3c(=O)c(C(=O)O)cn(C)c3c2)[C@H](C)[C@@H](O[C@@H]2O[C@H](C)C[C@H](N(C)C)[C@H]2O)[C@](C)(OC)C[C@@H](C)C(=O)[C@H](C)[C@H]2NC(=O)O[C@@]21C` [96g], the MIC with S. pneumoniae (setting [3]) was at most 0.008 µg/mL; in the test on S. pneumoniae (Streptococcus pneumoniae, S. pneumoniae 05O173, c-ermB, mef, read-out: MIC), 8 µg/mL (≈ 8.14 µM); with S. pneumoniae (setting [4]) it was 0.25 µg/mL (≈ 0.254 µM); in the test on S. pyogenes (Streptococcus pyogenes, S. pyogenes 12-206, c-ermTR, read-out: MIC) it was 0.5 µg/mL (≈ 0.509 µM); with H. influenzae (setting [5]), 2 µg/mL (≈ 2.03 µM); in the test with M. catarrhalis (Moraxella catarrhalis, read-out: MIC), 0.5 µg/mL (≈ 0.509 µM).
With `CC[C@H]1OC(=O)[C@H](C)[C@@H](OC(=O)NCCCCCCCCc2ccc3c(=O)c(C(=O)O)cn(C)c3c2)[C@H](C)[C@@H](O[C@@H]2O[C@H](C)C[C@H](N(C)C)[C@H]2O)[C@](C)(O)C[C@@H](C)CN(C)[C@H](C)[C@@H](O)[C@]1(C)O` [107g], the MIC against S. pneumoniae (S. pneumoniae 05O173, c-ermB, mef) stood at 128 µg/mL (≈ 135 µM); against S. pneumoniae (S. pneumoniae 07P390, c-ermB), 4 µg/mL (≈ 4.22 µM); against S. pneumoniae (S. pneumoniae ATCC49619, Ery-S) it was 0.25 µg/mL (≈ 0.264 µM); against S. pyogenes (S. pyogenes 12-206, c-ermTR), 8 µg/mL (≈ 8.45 µM); in the test on H. influenzae (H. influenzae ATCC49247, Azi-S), 8 µg/mL (≈ 8.45 µM); against M. catarrhalis, 1 µg/mL (≈ 1.06 µM).
As for `CC[C@H]1OC(=O)[C@H](C)[C@@H](OC(=O)NCCCCCCCCCc2ccc3c(c2)c(=O)c(C(N)=O)cn3C2CC2)[C@H](C)[C@@H](O[C@@H]2O[C@H](C)C[C@H](N(C)C)[C@H]2O)[C@](C)(OC)C[C@@H](C)C(=NOC)[C@H](C)[C@H]2OC(=O)O[C@@]21C` [63b], the MIC was 16 µg/mL (≈ 15.4 µM) against S. pneumoniae (S. pneumoniae 07P390, c-ermB); 2 µg/mL (≈ 1.92 µM) with S. pneumoniae (S. pneumoniae ATCC49619, Ery-S); 4 µg/mL (≈ 3.85 µM) with S. pneumoniae (S. pneumoniae PU09, mef); 16 µg/mL (≈ 15.4 µM) in the test on S. pyogenes (S. pyogenes 12-206, c-ermTR); above 256 µg/mL in the test with S. aureus [2] (S. aureus 15B196, c-ermB); 64 µg/mL (≈ 61.5 µM) with S. aureus [2] (S. aureus PU32, i-ermA). For the same compound, in the test with H. influenzae (H. influenzae ATCC49247, Azi-S), the MIC was above 256 µg/mL.
Regarding `CC[C@H]1OC(=O)[C@H](C)[C@@H](OC(=O)NCCOCCC#Cc2ccc3c(=O)c(C(=O)O)cn(C4CC4)c3c2)[C@H](C)[C@@H](O[C@@H]2O[C@H](C)C[C@H](N(C)C)[C@H]2O)[C@](C)(O)C[C@@H](C)CN(C)[C@H](C)[C@H]2OC(=O)O[C@@]21C` [116c], the MIC in the test on S. pneumoniae (S. pneumoniae 07P390, c-ermB) was 4 µg/mL (≈ 4.07 µM); against S. pneumoniae (S. pneumoniae ATCC49619, Ery-S), 0.12 µg/mL (≈ 0.122 µM); against S. pneumoniae (S. pneumoniae PU09, mef), 1 µg/mL (≈ 1.02 µM); in the test with S. pyogenes (S. pyogenes 12-206, c-ermTR) it was 8 µg/mL (≈ 8.14 µM); in the test on S. aureus [2] (S. aureus 15B196, c-ermB), 512 µg/mL (≈ 521 µM); against S. aureus [2] (S. aureus PU32, i-ermA), 32 µg/mL (≈ 32.5 µM). The same compound gave an MIC in the test on H. influenzae (H. influenzae ATCC49247, Azi-S) of 8 µg/mL (≈ 8.14 µM).
